Laboratory results from ChEMBL document CHEMBL4152278 (Eur J Med Chem, 2018).

Tested on: Influenza A virus
Experiment: Antiviral activity against Influenza A virus (A/WSN/1933(H1N1)) infected in MDCK cells expressing neuraminidase H275Y mutant assessed as protection against virus-induced cytopathic effect after 48 hrs by CellTiter96 aqueous non-radioactive cell proliferation assay
Type: functional, organism-based

`CCC(CC)O[C@@H]1C=C(C(=O)O)C[C@H](N/C(N)=N/C(=O)[C@@H](C)c2ccc3cc(OC)ccc3c2)[C@H]1NC(C)=O` showed an EC50 of 19000 nM.

For `CCCCCCCC(=O)/N=C(\N)N[C@H]1C=C(C(=O)O)O[C@@H]([C@H](O)[C@H](O)CO)[C@@H]1NC(C)=O`, the EC50 was 480 nM.

In the case of `COc1ccc2cc([C@H](C)C(=O)/N=C(\N)N[C@H]3C=C(C(=O)O)O[C@@H]([C@H](O)[C@H](O)CO)[C@@H]3NC(C)=O)ccc2c1`, the EC50 is reported as 900 nM.

With `CCCCCCCC(=O)/N=C(\N)N[C@H]1CC(C(=O)O)=C[C@@H](OC(CC)CC)[C@@H]1NC(C)=O` the EC50 was 6600 nM.

Molecule `CCC(CC)O[C@@H]1C=C(C(=O)O)C[C@H](NC(=N)N)[C@H]1NC(C)=O` has an EC50 of 2100 nM.

`CCC(CC)O[C@@H]1C=C(C(=O)O)C[C@H](N)[C@H]1NC(C)=O` [OSELTAMIVIR CARBOXYLATE] gave an EC50 of 26000 nM.

In the case of `CC(=O)N[C@H]1[C@H]([C@H](O)[C@H](O)CO)OC(C(=O)O)=C[C@@H]1NC(=N)N` [ZANAMIVIR], the EC50 is reported as 150 nM.
